From patent US20080300317A1 (Chevron U.S.A. Inc., priority 2007, published 2008)
Like-named read-outs stand apart in the source and are kept apart here.

How the values were obtained:
[1] = tested on: influenza A/PR/8/34 (H1N1); test: microbe, parasite or virus in culture; assay type: cell-based, influenza A virus
influenza A/WS/33 (H1N1) = test: microbe, parasite or virus in culture; assay type: cell-based, influenza A virus
[2] = tested on: influenza A/HK/8/68 (H3N2); test: microbe, parasite or virus in culture; assay type: cell-based, influenza A virus
influenza B/GL/1739/54 = test: Anti-viral EC50 experiment, survival of virus-infected Vero cells; assay type: cell-based, influenza B virus; conditions: for EC50 Virus B/GL/1739/54: Table 3, Vero cells, n at least 2, No effic. = no efficacy measured; for EC50: Influenza B virus, Vero, Table 4, controls, cutoff control values, determined over only 2 experiments
Protocol: The following MDT compounds were tested: MDT-1, MDT-3, MDT-10, MDT-11, MDT-12, MDT-13, MDT-14, MDT-15, MDT-16, MDT-22, MDT-23, MDT-24, MDT-26, MDT-27, MDT-28, MDT-29, MDT-30, MDT-31, MDT-32, MDT-33, MDT-34, MDT-40, MDT-41, MDT-42, MDT-43, MDT-44, MDT-45, MDT-46, MDT-47, MDT-48, MDT-49, MDT-50, MDT-51, MDT-53, MDT-56, MDT-57, MDT-58, MDT-59, MDT-60, MDT-61, MDT-62, MDT-63, MDT-65, MDT-67, MDT-68 and MDT-69. […] Amantadine and rimantadine are both adamantane derivatives.
Compound diluents were dimethyl sulfoxide (DMSO), Molecusol ((2-hydroxypropyl)-β-cyclodextrin; Sigma H107), propylene-glycol (PG) and deionized water. Diluents were used singly or in combination as necessary to dissolve the compounds.
The medium used for the cell lines was 1× Minimal Essential Medium (MEM) (Invitrogen) supplemented with 1% L-glutamine, 1% penicillin-streptomycin, 0.125% bovine serum albumin (BSA), and 1 μg/ml of TPCK-trypsin.
The viruses tested were influenza A/PR/8/34 (H1N1), influenza A/WS/33 (H1N1), influenza A/HK/8/68 (H3N2) and influenza B/GL/1739/54 (no H, N subtyping). Cells used were the Vero line of African green monkey, normal kidney cells. All viruses and cells were obtained from The American Type Culture Collection (Rockville, Md.). Cells were grown in an atmosphere of 4-6% CO2 at 34-38° C. in MEM with 5% fetal bovine serum (FBS), 2 mM glutamine, and 1% penicillin-streptomycin solution to maintain exponential growth.
The Vero cells were plated on Day 0. On Day 1, cells were infected with virus and incubated with various concentrations of test compounds. […] On Day 4 the cells were fixed and stained. […] Cell survival due to exposure to test compound was indicative of anti-viral activity.

[3] = Table 3, Vero cells, H1N1, n at least 2, No effic. = no efficacy measured, read-out: EC50 Virus A/PR/8/34
[4] = Table 3, Vero cells, H1N1, n at least 2, No effic. = no efficacy measured, read-out: EC50 Virus A/WS/33
[5] = Table 3, Vero cells, H3N2, n at least 2, No effic. = no efficacy measured
[6] = Table 3, MDT compounds, No Tox. = no cytotoxicity measured
[7] = Table 3, Vero cells, H1N1, n at least 2, No effic. = no efficacy measured
[8] = Table 3, Vero cells, H3N2, n at least 2, No effic. = no efficacy measured, read-out: EC50 Virus A/HK/8/68
[9] = Influenza A virus, Vero, Table 4, controls, cutoff control values compiled through many experiments
[10] = Influenza A virus, H1N1, Vero, Table 4, controls, cutoff control values compiled through many experiments
[11] = Influenza A virus, H3N2, Vero, Table 4, controls, cutoff control values compiled through many experiments
[12] = Table 4, controls, No Tox = no cytotoxicity measured

## CC12CC3C4CC5(C)CC3C(C1)C(O)(C5)C4C2 [MDT-47, 4,9-dimethyl-1-hydroxydiamantane]
[1]; [3]
  EC50: < 0.125 µM
Influenza A/WS/33 (H1N1); [4]
  EC50: 0.46 µM
[2]; [5]
  EC50 Virus A/HK/8/68: No Effic.
Influenza B/GL/1739/54
  EC50 Virus B/GL/1739/54: No Effic.
Vero cells; [6]
  Cytotoxicity: No Tox.

## CC(N)C12CC3CC4C5CC(CC41)CC2C5C3 (stereo not drawn) [MDT-57, 1-(1-aminoethyl)diamantane]
[1]; [7]
  EC50 Virus A/PR/8/34: No Effic.
Influenza A/WS/33 (H1N1); [7]
  EC50 Virus A/WS/33: No Effic.
[2]; [8]
  EC50: 0.16 µM
Influenza B/GL/1739/54
  EC50 Virus B/GL/1739/54: No Effic.
Vero cells; [6]
  Cytotoxicity: 50 or above μM

## NCC12CC3C4CC5CC3C(C1)C(C5)C4C2 [MDT-61, 4-diamantanemethylamine]
[1]; [7]
  EC50 Virus A/PR/8/34: No Effic.
Influenza A/WS/33 (H1N1); [7]
  EC50 Virus A/WS/33: No Effic.
[2]; [8]
  EC50: 0.1 µM
Influenza B/GL/1739/54
  EC50 Virus B/GL/1739/54: No Effic.
Vero cells; [6]
  Cytotoxicity: 50 or above μM

## CC(N)C12CC3C4CC5CC3C(C1)C(C5)C4C2 (stereo not drawn) [MDT-62, 4-(1-aminoethyl)diamantane]
[1]; [3]
  EC50: 0.28 µM
Influenza A/WS/33 (H1N1); [4]
  EC50: 1.94 µM
[2]; [5]
  EC50 Virus A/HK/8/68: No Effic.
Influenza B/GL/1739/54
  EC50 Virus B/GL/1739/54: No Effic.
Vero cells; [6]
  Cytotoxicity: 50 or above μM

## CCOC(=O)C1=C[C@@H](OC(CC)CC)[C@H](NC(C)=O)[C@@H](N)C1 [Oseltamivir, reference compound]
[1]; [9]
  EC50: ≥ 10 µM
Influenza A/WS/33 (H1N1); [10]
  EC50: ≥ 5 µM
[2]; [11]
  EC50: ≤ 1 µM
Influenza B/GL/1739/54
  EC50: ≥ 15 µM
Vero cells; [12]
  Cytotoxicity: No Tox.

## CC(N)C12CC3CC(CC(C3)C1)C2.Cl (stereo not drawn) [Rimantadine, alpha-methyl-1-adamantanemethylamine hydrochloride, reference compound]
[1]; [9]
  EC50: ≥ 1 µM
Influenza A/WS/33 (H1N1); [10]
  EC50: ≥ 50 µM
[2]; [11]
  EC50: ≤ 1 µM
Influenza B/GL/1739/54
  EC50: ≥ 50 µM
Vero cells; [12]
  Cytotoxicity: No Tox.
